Test results from patent publication US8975415B2, “Chromane compounds” (CoMentis, Inc., priority 2012, dated 2015).
pIC50, pKi: −log10 of the molar value.

Key:
BACE1 [1] = biological target: T1, BACE1 (Homo sapiens (Human), UniProt P56817); experiment: Measurement of Aβ production inhibition in cell (SK-N-BE(2) neuroblastoma cells, Aβ40 ELISA); details: Test Example 3 IC50, Aβ40 production, SK-N-BE(2) cells, 6 hours
Target sequence in this assay (P56817 46-501): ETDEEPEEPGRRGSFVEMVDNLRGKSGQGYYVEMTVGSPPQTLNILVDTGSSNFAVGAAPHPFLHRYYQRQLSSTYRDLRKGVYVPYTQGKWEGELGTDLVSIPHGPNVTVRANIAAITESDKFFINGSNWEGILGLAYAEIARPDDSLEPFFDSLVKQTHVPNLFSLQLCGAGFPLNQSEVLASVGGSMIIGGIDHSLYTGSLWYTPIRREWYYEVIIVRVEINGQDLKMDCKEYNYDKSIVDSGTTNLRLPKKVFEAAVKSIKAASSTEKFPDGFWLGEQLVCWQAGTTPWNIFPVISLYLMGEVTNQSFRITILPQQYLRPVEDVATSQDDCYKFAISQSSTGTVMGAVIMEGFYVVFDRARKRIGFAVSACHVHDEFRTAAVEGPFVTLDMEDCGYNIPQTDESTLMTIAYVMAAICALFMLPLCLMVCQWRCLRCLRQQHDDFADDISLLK
Description: The potency of compounds against BACE1 activity was determined in a cellular assay of Aβ production. […] Test compounds were dissolved in dimethyl sulfoxide and diluted with dimethyl sulfoxide and put into RPMI1640/5% FBS/penicillin-streptomycin media (final dimethyl sulfoxide concentration is 0.5%). […] CellTiter-Glo Substrate was dissolved into CellTiter-Glo Buffer and added to the plates in 95 μL/well. After shaking the plates for 2 minutes, the whole sample was transferred into a white 96-well plate and luminescence was measured for ATP quantification as the cell viability. Aβ concentration measured by ELISA was normalized by the viability of the corresponding cells.

BACE1 [2] = biological target: T1, BACE1; experiment: Measurement of BACE1 inhibition by time resolved fluorescence resonance energy transfer (TR-FRET); format: biochemical; details: Eu-CEVNLDAEFK-QSY 7 substrate, read-out: Test Example 2 IC50
Target sequence in this assay (P56817 75-416): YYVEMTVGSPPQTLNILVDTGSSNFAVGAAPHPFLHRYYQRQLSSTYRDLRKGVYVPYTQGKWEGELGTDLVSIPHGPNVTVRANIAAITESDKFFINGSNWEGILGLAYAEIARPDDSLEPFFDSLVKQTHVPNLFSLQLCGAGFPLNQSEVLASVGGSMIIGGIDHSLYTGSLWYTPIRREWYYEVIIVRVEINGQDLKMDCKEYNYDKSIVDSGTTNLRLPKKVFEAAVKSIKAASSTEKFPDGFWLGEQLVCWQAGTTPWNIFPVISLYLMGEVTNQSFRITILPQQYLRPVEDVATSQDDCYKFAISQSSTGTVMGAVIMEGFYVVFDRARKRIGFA
Description: If the sample contains BACE1 activity, the Eu chelate and the quencher will be separated as the substrate is cleaved. The Eu-signal increases and it can be measured by time-resolved fluorometry, EnVision™, 30 minutes after the substrate (final concentration 300 nM) was added.

BACE1 [3] = biological target: T1, BACE1; experiment: Measurement of BACE1 inhibition by fluorescence resonance energy transfer (FRET), MCA substrate; details: FRET; for pIC50: read-out: Test Example 1 IC50, MCA-SEVNLDAEFK(DNP)-NH2 substrate, pH 4.4; for pKi: read-out: Test Example 1 BACE1 MCA Ki, MCA substrate
Target sequence in this assay (P56817 75-416): as above

hERG potassium channel = hERG potassium channel (Homo sapiens (Human), UniProt Q12809); experiment: hERG inhibition, automated planar patch-clamp in hERG-expressing CHO cells; details: read-out: Test Example 5 hERG IC50; whole-cell patch clamp, room temperature
Chain of hERG potassium channel (Q12809 whole entry): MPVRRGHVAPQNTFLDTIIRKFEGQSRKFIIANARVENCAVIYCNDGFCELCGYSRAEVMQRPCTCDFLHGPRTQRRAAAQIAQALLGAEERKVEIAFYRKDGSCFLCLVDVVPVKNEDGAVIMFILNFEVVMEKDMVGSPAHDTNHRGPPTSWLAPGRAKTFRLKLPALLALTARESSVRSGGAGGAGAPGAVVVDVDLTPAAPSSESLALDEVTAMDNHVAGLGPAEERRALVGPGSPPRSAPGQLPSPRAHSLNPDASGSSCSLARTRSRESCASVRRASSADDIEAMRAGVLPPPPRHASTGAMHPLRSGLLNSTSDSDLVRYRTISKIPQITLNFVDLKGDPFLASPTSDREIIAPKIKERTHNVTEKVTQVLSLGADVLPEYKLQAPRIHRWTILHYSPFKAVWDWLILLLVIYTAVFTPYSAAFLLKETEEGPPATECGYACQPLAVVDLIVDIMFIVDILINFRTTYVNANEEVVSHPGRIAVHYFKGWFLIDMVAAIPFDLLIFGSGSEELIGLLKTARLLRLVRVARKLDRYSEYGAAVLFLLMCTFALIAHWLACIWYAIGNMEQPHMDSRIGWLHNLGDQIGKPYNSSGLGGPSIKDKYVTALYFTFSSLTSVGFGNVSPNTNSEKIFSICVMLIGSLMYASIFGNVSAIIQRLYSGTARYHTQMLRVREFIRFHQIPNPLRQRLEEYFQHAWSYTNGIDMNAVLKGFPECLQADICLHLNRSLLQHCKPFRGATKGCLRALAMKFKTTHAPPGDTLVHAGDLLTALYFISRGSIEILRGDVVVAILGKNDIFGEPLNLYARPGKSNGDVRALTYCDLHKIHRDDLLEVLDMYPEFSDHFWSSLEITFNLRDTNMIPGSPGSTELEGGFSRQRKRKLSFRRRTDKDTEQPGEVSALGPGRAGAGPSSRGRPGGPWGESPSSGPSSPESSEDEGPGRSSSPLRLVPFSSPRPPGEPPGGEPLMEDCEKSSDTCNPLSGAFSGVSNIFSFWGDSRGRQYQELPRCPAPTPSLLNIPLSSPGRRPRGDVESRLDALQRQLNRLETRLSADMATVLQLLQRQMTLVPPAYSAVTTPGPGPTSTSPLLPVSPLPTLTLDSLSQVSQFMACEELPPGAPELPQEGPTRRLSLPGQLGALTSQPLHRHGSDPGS

SMILES | pIC50 (BACE1 [1]) | pIC50 (BACE1 [2]) | pIC50 (BACE1 [3]) | pIC50 (hERG potassium channel) | pKi (BACE1 [3])
CC1(C)Oc2ccc(-c3cc(F)ccn3)cc2C2(COC(N)=N2)C12COC2 (centres unmarked) [RP 149] | 5.96 | 5.80 |  |  | 
CCC1CC=C(c2ccc3c(c2)C2(COC(N)=N2)C2(COC2)C(C)(C)O3)CC1 (centres unmarked) [RP 172] |  | 5.67 | 5.65 |  | 
CC1(C)Oc2ccc(-c3cccc4cnccc34)cc2C2(COC(N)=N2)C12COC2 (centres unmarked) [RP 180] | 6.31 | 5.75 | 5.69 |  | 
CC1(C)Oc2ccc(-c3cnc4[nH]ccc4c3)cc2C2(COC(N)=N2)C12COC2 (centres unmarked) [RP 168] | 6.51 | 6.12 |  |  | 
CC1(C)Oc2ccc(-c3cncc(Cl)c3)cc2C2(COC(N)=N2)C12COC2 (centres unmarked) [RP 173] | 7.14 | 6.62 | 6.40 |  | 
CC1(C)Oc2ccc(-c3ccnc(Cl)c3)cc2C2(COC(N)=N2)C12COC2 (centres unmarked) [RP 163] |  | 5.97 |  |  | 
Cc1cc(-c2ccc3c(c2)C2(COC(N)=N2)C2(COC2)CO3)ccn1 (centres unmarked) [RP 37] |  | 4.26 |  |  | 
COc1ccnc(-c2ccc3c(c2)C2(COC(N)=N2)C2(COC2)C(C)(C)O3)c1 (centres unmarked) [RP 65, 6′-(4-methoxypyridin-2-yl)-2′,2′-dimethyldispiro[1,3-oxazole-4,4′-chromene-3′,3″-oxetan]-2-amine] | 7.31 | 6.41 |  |  | 
CC1(C)Oc2ccc(-c3ccc4nonc4c3)cc2C2(COC(N)=N2)C12COC2 (centres unmarked) [RP 178] | 6.09 | 6.13 | 5.94 |  | 
CC1(C)Oc2ccc(-c3cccc(OC(F)(F)F)c3)cc2C2(COC(N)=N2)C12COC2 (centres unmarked) [RP 183] |  | 6.06 | 5.97 |  | 
CC1(C)Oc2ccc(-c3ccc(OC(F)F)cc3)cc2C2(COC(N)=N2)C12COC2 (centres unmarked) [RP 187] |  | 5.72 | 5.50 |  | 
NC1=NC2(CO1)c1cc(-c3cncnc3)ccc1OC(C1CC1)C21COC1 (centres unmarked) [RP 88] | 5.85 |  | 5.60 | < 5.00 | 
NC1=NC2(CO1)c1cc(C3=CCOCC3)ccc1OCC21COC1 (centres unmarked) [RP 24] |  | 4.48 | 4.42 |  | 
COCc1cnn(-c2ccc3c(c2)C2(COC(N)=N2)C2(COC2)C2(CCC2)O3)c1 (centres unmarked) [RP 4] | 5.14 |  | 4.90 | < 5.00 | 
CC1(C)Oc2ccc(Br)cc2C2(COC(N)=N2)C12COC2 (centres unmarked) [RP 6, 6′-bromo-2′,2′-dimethyldispiro[1,3-oxazole-4,4′-chromene-3′,3″-oxetan]-2-amine] | 5.41 |  | 4.93 | < 5.00 | 
CC1(C)Oc2ccc(-c3cncc(Cl)n3)cc2C2(COC(N)=N2)C12COC2 (centres unmarked) [RP 150] | 6.35 | 6.12 |  |  | 
CC#Cc1cncc(-c2ccc3c(c2)C2(COC(N)=N2)C2(COC2)C(CCC)O3)c1 (centres unmarked) [RP 92] | 7.43 |  | 6.91 | 5.27 | 7.06
NC1=NC2(CO1)c1cc(-c3cccnc3F)ccc1OC1(CCC1)C21COC1 (centres unmarked) [RP 71] | 6.96 |  | 5.97 | < 5.00 | 
NC1=NC2(CO1)c1cc(-c3cnc4ccccc4c3)ccc1OC1(CCC1)C21COC1 (centres unmarked) [RP 211] |  | 4.71 |  |  | 

SMILES | pIC50 (BACE1 [1]) | pIC50 (BACE1 [2]) | pIC50 (BACE1 [3]) | pIC50 (hERG potassium channel) | pKi (BACE1 [3])
NC1=NC2(COC1)c1cc(-c3cncnc3)ccc1OCC21CC1 (centres unmarked) [RP 215, 6′-(pyrimidin-5-yl)-6″H-dispiro[cyclopropane-1,3′-chromene-4′,3″-[1,4]oxazin]-5″-amine] | 6.62 |  | 5.92 | < 5.00 | 
CC#Cc1cc(-c2ccc3c(c2)C2(COC(N)=N2)C2(COC2)CO3)ncn1 (centres unmarked) [RP 21] | 6.39 | 5.87 |  |  | 
NC1=NC2(CO1)c1cc(-c3cncc(C(F)(F)F)c3)ccc1OC1(CCC1)C21COC1 (centres unmarked) [RP 99] | 5.72 |  | 5.53 | < 5.00 | 
CC#Cc1cncc(-c2ccc3c(c2)C2(COC(N)=N2)C2(CC2)CO3)c1 (centres unmarked) [RP 111] | 6.85 |  | 6.54 | 5.70 | 6.60
CC1(C)Oc2ccc(-c3cccc4[nH]ncc34)cc2C2(COC(N)=N2)C12COC2 (centres unmarked) [RP 176] | 6.07 | 6.00 |  |  | 
NC1=NC2(CO1)c1cc(-c3cccnc3)ccc1OC1(CCC1)C21COC1 (centres unmarked) [RP 209] | 6.08 |  | 5.70 | < 5.00 | 
Cc1cn2cc(-c3ccc4c(c3)C3(COC(N)=N3)C3(COC3)C3(CCC3)O4)ccc2n1 (centres unmarked) [RP 67] |  | 4.02 |  | < 5.00 | 
NC1=NC2(CO1)c1cc(-c3cc(Cl)cnc3F)ccc1OCC21COC1 (centres unmarked) [RP 34] | 6.59 |  | 5.91 | < 5.00 | 
CC1(C)Oc2ccc(-c3cc(C#N)ccc3F)cc2C2(COC(N)=N2)C12COC2 (centres unmarked) [RP 170] | 6.40 | 6.23 | 6.00 |  | 
NC1=NC2(CO1)c1cc(-c3cncc4ccccc34)ccc1OC1(CCC1)C21COC1 (centres unmarked) [RP 210] |  | 5.31 |  | 5.43 | 
CC1(C)Oc2ccc(-c3c(F)ccc(F)c3F)cc2C2(COC(N)=N2)C12COC2 (centres unmarked) [RP 185] | 6.12 | 5.90 | 5.69 |  | 
CC#Cc1cncc(-c2ccc3c(c2)C2(CSC(N)=N2)C2(COC2)CO3)c1 (centres unmarked) [RP 68] | 6.30 |  | 6.46 | 5.22 | 
COC/C=C/c1ccc2c(c1)C1(COC(N)=N1)C1(COC1)C(C)(C)O2 (centres unmarked) [RP 181] | 6.09 | 5.67 | 5.59 |  | 
CC1(C)Oc2ccc(Br)cc2C2(CSC(N)=N2)C12COC2 (centres unmarked) [RP 42] | 5.23 |  | 4.79 | < 5.00 | 
CC#Cc1cncc(-c2ccc3c(c2)C2(COC(N)=N2)C2(COC2)CO3)n1 (centres unmarked) [RP 22] | 5.54 | 5.59 |  |  | 
CC1(C)Oc2ccc(-c3ccccc3OC(F)(F)F)cc2C2(COC(N)=N2)C12COC2 (centres unmarked) [RP 184] |  | 5.57 | 5.55 |  | 
CC1(C)Oc2ccc(-c3ccc4c(c3)OCO4)cc2C2(COC(N)=N2)C12COC2 (centres unmarked) [RP 182] | 5.60 | 5.84 |  |  | 
CC1(C)Oc2ccc(-c3cccc4[nH]ccc34)cc2C2(COC(N)=N2)C12COC2 (centres unmarked) [RP 186] |  | 5.62 |  |  | 
NC1=NC2(CO1)c1cc(-c3cncnc3)ccc1OC(Cc1ccccc1)C21COC1 (centres unmarked) [RP 200] | 7.59 |  | 6.89 | < 5.00 | 7.04

SMILES | pIC50 (BACE1 [1]) | pIC50 (BACE1 [2]) | pIC50 (BACE1 [3]) | pIC50 (hERG potassium channel) | pKi (BACE1 [3])
CC#Cc1cncc(-c2ccc3c(c2)C2(COC(N)=N2)C2(CC2)CO3)c1 (single isomer, unassigned) [RP 52a, 6′-[5-(prop-1-yn-1-yl)pyridin-3-yl]dispiro[cyclopropane-1,3′-chromene-4′,4″-[1,3]oxazol]-2″-amine] | 7.12 |  | 6.79 | 5.32 | 
COc1cc(-c2ccc3c(c2)C2(COC(N)=N2)C2(COC2)C(C)(C)O3)ccn1 (centres unmarked) [RP 164] |  | 5.64 |  |  | 
CC1(C)Oc2ccc(-c3ccc4[nH]ncc4c3)cc2C2(COC(N)=N2)C12COC2 (centres unmarked) [RP 177] | 5.82 | 5.67 |  |  | 
COc1ncc(Cl)cc1-c1ccc2c(c1)C1(COC(N)=N1)C1(COC1)C(C)(C)O2 (centres unmarked) [RP 155] | 6.20 | 6.10 |  |  | 
CC#Cc1cncc(-c2ccc3c(c2)C2(COC(N)=N2)C2(COC2)C(CC)O3)c1 (centres unmarked) [RP 86] | 7.24 |  | 6.84 | 5.10 | 6.97
NC1=NC2(CO1)c1cc(-c3cncc(C(F)F)c3)ccc1OC1(CCC1)C21COC1 (centres unmarked) [RP 118] | 6.00 |  | 5.74 | < 5.00 | 
CNC(=O)c1cc(F)cc(-c2ccc3c(c2)C2(COC(N)=N2)C2(COC2)C(C)(C)O3)c1 (centres unmarked) [RP 171] | 5.51 | 5.52 | 5.65 |  | 
CCCC1Oc2ccc(-c3cncnc3)cc2C2(COC(N)=N2)C12COC2 (centres unmarked) [RP 91] | 6.47 |  | 6.18 | < 5.00 | 
CCOc1cncc(-c2ccc3c(c2)C2(COC(N)=N2)C2(CC2)CO3)c1 (centres unmarked) [RP 106] | 6.80 |  | 5.74 | 5.24 | 
CC1(C)Oc2ccc(-c3cccc4cccnc34)cc2C2(COC(N)=N2)C12COC2 (centres unmarked) [RP 179] | 5.85 | 5.69 | 5.49 |  | 
NC1=NC2(CO1)c1cc(Br)ccc1OC(Cc1ccccc1)C21COC1 (single isomer, unassigned) [RP 15a] | 5.96 |  | 5.76 | < 5.00 | 
Cc1cncc(-c2ccc3c(c2)C2(COC(N)=N2)C2(COC2)C2(CCC2)O3)c1 (centres unmarked) [RP 75, 6′-(5-methylpyridin-3-yl)trispiro[cyclobutane-1,2′-chromene-4′,4″-[1,3]oxazole-3′,3′″-oxetan]-2″-amine] | 5.96 |  | 5.44 | < 5.00 | 
NC1=NC2(CO1)c1cc(Br)ccc1OC(Cc1ccccc1)C21COC1 (single isomer, unassigned) [RP 15b] | 6.36 |  | 6.00 | 5.10 | 
CC1(C)Oc2ccc(-c3cccc4cc[nH]c34)cc2C2(COC(N)=N2)C12COC2 (centres unmarked) [RP 175] |  | 5.81 | 5.49 |  | 
NC1=NC2(CO1)c1cc(-c3cncnc3)ccc1OCC21CC(F)(F)C1 (centres unmarked) [RP 208] | 5.21 |  | 5.11 | < 5.00 | 
CC#Cc1cc(-c2ccc3c(c2)C2(COC(N)=N2)C2(COC2)CO3)ccn1 (centres unmarked) [RP 20] | 6.24 | 5.57 |  |  | 
CC1(C)Oc2ccc(-c3ccc4[nH]ccc4c3)cc2C2(COC(N)=N2)C12COC2 (centres unmarked) [RP 174, 6′-(1H-indol-5-yl)-2′,2′-dimethyldispiro[1,3-oxazole-4,4′-chromene-3′,3″-oxetan]-2-amine] | 5.47 | 5.66 | 5.47 |  | 
NC1=NC2(CO1)c1cc(-c3cncnc3)c(F)cc1OCC21CC1 (centres unmarked) [RP 102] | 6.62 |  | 5.79 | < 5.00 | 
